Experimental data reported in EP4810494A1, “HPK1 DEGRADATION AGENT AND USE THEREOF IN FIELD OF MEDICINE” (Haisco Pharmaceutical Group Co., Ltd., priority 2023, dated 2025).
Counter-ions that a name gives are not always drawn. Like-named read-outs stand apart in the source and are kept apart here.

What was measured:
[1] = Pharmacokinetic test in rats; type: in vivo, SD rats; conditions: rat, plasma
Procedure: Test example 7: Pharmacokinetic test in rats
Experimental animals: Male SD rats, 180-200 g, purchased from Chengdu Dossy Experimental Animals Co., Ltd. with the laboratory animal production license number of SCXK (CHUAN) 2020-030.
Experimental design: on the day of the experiment, the SD rats were randomly grouped according to their body weights. The animals were fasted but with water available overnight before the administration, and fed 4 h after the administration.
Vehicle for intragastric administration: 5% Solutol+5% TPGS+30% PEG400+60% (20% SBE-β-CD)
Blood was taken from the orbits of the […] at specified time points, and placed in an EDTAK2 centrifuge tube. Centrifugation was performed at 5000 rpm for 10 min, and the plasma was collected.
Blood sampling time points for the intravenous administration group were: 0, 5 min, 15 min, 30 min, 1 h, 2 h, 4 h, 6 h, 8 h and 24 h; blood sampling time points for the intragastric administration group were: 0, 5 min, 15 min, 30 min, 1 h, 2 h, 4 h, 6 h, 8 h and 24 h. Before analysis and detection, all the samples were stored at - 60°C or lower. The samples were analysed quantitatively by LC-MS/MS. Table 7-1 PK data of test compound drug in rats

[2] = test system: IL-2 secretion by T cells; assay: IL-2 detection assay in cells (ELISA, pan-T cells isolated from PBMCs); type: cell-based; conditions: IL-2, CD3 antibody-coated plate, 24 hours; for Maximum activation fold: maximum activation rate/control group
Procedure: 9. IL-2 detection assay in cells
Activating effect of compounds on IL-2 secretion by T cells was evaluated using the ELISA method. Frozen PBMCs were thawed, and pan-T cells were isolated and purified using a T cell sorting kit (Stemcell, 17951). The cells were resuspended in 1640 complete medium and incubated in a 37°C&5%CO2 incubator overnight. A 96-well plate coated with an anti-human CD3 antibody (Thermo, 16-0037-38) at a final concentration of 5 µg/mL was incubated at 37°C for 2 h. The overnight-cultured cells were collected by centrifugation, the supernatant was discarded, and the cells were resuspended in 1640 complete medium, and seeded in the CD3 antibody-coated 96-well plate at a density of 10^5cells/well. The compounds at different concentrations were added, and the mixture was incubated in a 37°C&5%CO2 incubator for 24 hours. After the incubation was completed, the resulting mixture was centrifuged at 1000 rpm for 1 minute to collect the supernatant, and IL-2 was detected according to the ELISA instructions. DMSO without compounds was used as the control group to calculate the activation rate of the compounds, and prism was used to fit the activation curve. Maximum activation fold = maximum activation rate/control group. Table 9-1 Results of IL-2 activation by test compounds

[3] = Pharmacokinetic test in mice; type: in vivo, ICR mice; conditions: mouse, plasma
Procedure: Test example 6: Pharmacokinetic test in mice
Experimental objective: In this experiment, a single dose of test substances was administered to ICR mice intravenously and intragastrically, the concentrations of the test compounds in plasma of mice were measured, and the pharmacokinetic characteristics and bioavailability of the test compounds in mice were evaluated.
Experimental animals: Male ICR mice, 20-35 g, purchased from Chengdu Dossy Experimental Animals Co., Ltd. (SCXK (CHUAN) 2020-030).
Experimental method: On the day of the experiment, the ICR mice were randomly grouped according to their body weights. The animals were fasted but with water available overnight before the administration, and fed 4 h after the administration.
Sampling: Blood was taken from the orbits of the mice at specified time points, and placed in an EDTAK2 centrifuge tube. Centrifugation was performed at 5000 rpm at 4°C for 10 min, and the plasma was collected.
Time points for plasma collection in G1 and G1-2 groups: 0, 5 min, 15 min, 30 min, 1 h, 2 h, 4 h, 7 h, and 24 h.
Time points for plasma collection in G2 and G2-2 groups: 0, 5 min, 15 min, 30 min, 1 h, 2 h, 4 h, 7 h, and 24 h.
Before analysis and detection, all the samples were stored at -60°C or lower. The samples were analysed quantitatively by LC-MS/MS. Table 6-1 PK data of test compound drug in mice

HPK1 kinase = molecular target: T1, HPK1 kinase (Homo sapiens, UniProt Q92918); assay: HPK1 kinase assay (1 mM ATP); type: biochemical
T1 construct: purchased Carna 07-410
T1 sequence (Q92918 1-346 limits assumed): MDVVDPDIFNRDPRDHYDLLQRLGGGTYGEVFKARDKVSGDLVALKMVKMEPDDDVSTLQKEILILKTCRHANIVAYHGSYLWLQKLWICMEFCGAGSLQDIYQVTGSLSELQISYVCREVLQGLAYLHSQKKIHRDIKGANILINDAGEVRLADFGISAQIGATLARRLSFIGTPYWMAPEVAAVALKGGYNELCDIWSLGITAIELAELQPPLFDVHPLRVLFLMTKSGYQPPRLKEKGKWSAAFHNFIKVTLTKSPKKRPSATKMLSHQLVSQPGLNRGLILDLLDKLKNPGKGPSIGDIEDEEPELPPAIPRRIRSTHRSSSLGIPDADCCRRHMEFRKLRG
Procedure: Test example 5: HPK1 kinase assay (1 mM ATP)
The kinase HPK1 (Carna, Cat.No 07-410) was prepared into 2× kinase solution using 1× kinase buffer. The substrate Fluorescein-PKC (Invitrogen, Cat. No. PV3506) and ATP (working concentration: 1 mM) (Sigma, Cat. No. 2383-5G) were prepared into 2× substrate solution using 1×kinase buffer. The detection reagent was diluted to 2-fold the final concentration using an antibody diluent. 100 nL of compounds at different concentrations and 5 µL of kinase solution were added to each well of a 384-well plate, and the mixture was incubated at room temperature for 10 minutes. After the incubation was completed, 5 µL of substrate solution was added to each well, and the resulting mixture was reacted at room temperature for 90 minutes. After the reaction was completed, 10 µL of detection reagent was added to each well to terminate the reaction, and the mixture was incubated at room temperature for 60 minutes. Fluorescence readings were detected using an Envision instrument with excitation at 320 nm and emission at 520 nm and 495 nm. IC50 value was calculated using XLFit excel add-in version 5.4.0.8 software. The calculation formula of the inhibition rate was shown in formula 5-1, wherein max is the Ratio of the DMSO control, min is the Ratio of the negative control without enzyme, and sample is the Ratio of the compound. Ratio = RFU520nm /RFU495nm [formula] Inhibition% = (max−sample)/(max−min) × 100% [formula] Table 5-1 Inhibitory activity of test compounds against HPK1 kinase

HPK1 protein = molecular target: T2, HPK1 protein (Homo sapiens, UniProt Q92918); assay: Detection of HPK1 protein expression level in Jurkat cells (24 h); type: cell-based; conditions: 24 hours incubation
T2 construct: host or cells: Jurkat cells
Procedure: Test example 4: Detection of HPK1 protein expression level in Jurkat cells (24 h)
Jurkat cells from ATCC were placed in a RPMI-1640 complete medium (supplemented with 10% FBS and 1% penicillin-streptomycin solution) and cultured at 37°C and 5% CO2. The cells in the logarithmic growth phase were collected, the cell density was adjusted to 5 × 10^5 cells/well with the culture medium, and the cells were added to a 6-well cell culture plate at a volume of 1 mL/well. The compound to be tested was prepared to 2-fold the final concentration, 1 mL of the compounds at different concentrations were added to administration wells, a medium containing 0.2% DMSO was added to control wells, and the plate was incubated at 37°C and 5% CO2 for 24 hours. The cells were collected into a 1.5 mL centrifuge tube, 30 µL of RIPA lysis buffer (containing 1X protease inhibitor cocktail) was added, and the cells were lysed on ice for 15 minutes and centrifuged at 12000 rpm/min at 4°C for 10 minutes. The supernatant was collected and the protein content was determined using the BCA method. The protein sample to be tested was diluted to 0.2 mg/mL, HPK1 was detected using a fully automated protein expression quantitative analyser (ProteinSimple), and the internal reference protein was β-actin (all antibodies were from CST). The software (Compass for SW) of the fully automated protein expression quantitative analyser was used to process the raw data and calculate the peak area after internal reference normalisation and the HPK1 degradation rate relative to the control group. The HPK1 degradation rate was calculated according to formula 4-1, where Aadministration well is the relative peak area of the administration group after internal reference normalisation, and Acontrol well is the relative peak area of the vehicle control group after internal reference normalisation. DC50 values were calculated using a four-parameter non-linear fitting model in Graphpad 8.3.0 software. HPK1_degradation % = 100−(Aadministration well/Acontrol well×100%) [formula] Table 4-1 Degradation activity of test compounds against HPK1 protein in Jurkat cells (24 h)

T2 sequence (Q92918 whole entry): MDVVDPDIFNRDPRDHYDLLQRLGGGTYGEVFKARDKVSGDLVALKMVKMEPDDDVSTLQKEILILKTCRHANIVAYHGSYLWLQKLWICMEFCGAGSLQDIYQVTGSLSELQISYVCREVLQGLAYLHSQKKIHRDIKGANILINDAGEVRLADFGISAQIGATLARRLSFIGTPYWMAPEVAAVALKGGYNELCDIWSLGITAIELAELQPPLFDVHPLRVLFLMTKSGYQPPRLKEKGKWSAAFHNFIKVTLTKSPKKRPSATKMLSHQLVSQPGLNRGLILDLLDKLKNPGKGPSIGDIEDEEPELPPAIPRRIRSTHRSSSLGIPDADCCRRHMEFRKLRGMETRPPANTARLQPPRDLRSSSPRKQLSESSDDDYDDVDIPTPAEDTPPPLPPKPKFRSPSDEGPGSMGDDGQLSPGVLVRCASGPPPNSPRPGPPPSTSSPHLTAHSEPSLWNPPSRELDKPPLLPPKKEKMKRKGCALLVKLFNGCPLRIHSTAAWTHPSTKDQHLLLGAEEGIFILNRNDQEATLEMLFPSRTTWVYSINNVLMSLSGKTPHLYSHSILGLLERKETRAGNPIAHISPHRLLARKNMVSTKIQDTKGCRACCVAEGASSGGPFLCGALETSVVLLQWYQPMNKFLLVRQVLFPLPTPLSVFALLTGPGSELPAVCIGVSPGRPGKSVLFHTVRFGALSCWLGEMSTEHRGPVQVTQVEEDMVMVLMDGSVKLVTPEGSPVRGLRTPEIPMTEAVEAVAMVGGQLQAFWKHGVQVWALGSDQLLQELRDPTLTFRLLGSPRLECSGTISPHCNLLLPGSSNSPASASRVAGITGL

Structure (SMILES) | clearance ([1]; IV, 2.5 mg/kg) [mL/min/kg] | half-life ([1]; IV, 2.5 mg/kg) [h] | AUC ([1]; po, i. g., 10 mg/kg) [ng·h/mL] | Cmax ([1]; po, i. g., 10 mg/kg) [ng/mL] | half-life ([1]; po, i. g., 10 mg/kg) [h] | Activation fold at 100 nM concentration [2] | Maximum activation fold [2] | AUC ([3]; po, i. g., 10 mg/kg) [ng·h/mL] | Cmax ([3]; po, i. g., 10 mg/kg) [ng/mL] | half-life ([3]; po, i. g., 10 mg/kg) [h] | IC50 (HPK1 kinase) [nM] | DC50 (HPK1 protein) [nM] | further results
CN(C)Cc1nc(Nc2ccc(-c3cnc4cc(F)ccn34)c3c2C(=O)NC3)ccc1[C@@H]1CCOC1 [Control compound 1, reference compound] | 233 | 0.986 | 61.1 | 14.6 | 1.71 | <10 | <10 | 248 | 93.8 | 2.05 |  |  | clearance ([3]; IV, 2.5 mg/kg): 169 mL/min/kg; half-life ([3]; IV, 2.5 mg/kg): 0.89 h
N#Cc1ccn2c(-c3ccc(Nc4ccc(N5CCC(CN6CCN7c8cc(F)c(N9CCC(=O)NC9=O)cc8CC[C@@H]7C6)CC5)cn4)c4c3CNC4=O)cnc2c1 [Trifluoroacetic acid salt of compound 31] |  |  |  |  |  | >10 | >10 |  |  |  | < 50 | < 20 | clearance ([1]; IV, 1 mg/kg): 5.38 mL/min/kg; half-life ([1]; IV, 1 mg/kg): 4.88 h; AUC ([1]; po, i. g., 5 mg/kg): 4390 ng·h/mL; Cmax ([1]; po, i. g., 5 mg/kg): 464 ng/mL; half-life ([1]; po, i. g., 5 mg/kg): 4.48 h; AUC ([3]; po, i. g., 5 mg/kg): 6500 ng·h/mL; Cmax ([3]; po, i. g., 5 mg/kg): 553 ng/mL; half-life ([3]; po, i. g., 5 mg/kg): 3.03 h
Cn1ccc2c(-c3ccc(Nc4ccc(N5CCC(CN6CCN7c8cc(F)c(N9CCC(=O)NC9=O)cc8CC[C@H]7C6)CC5)cn4)c4c3CNC4=O)ccnc21 [Trifluoroacetic acid salt of compound 35] |  |  |  |  |  |  | >10 | 37100 | 2650 | 12.1 | < 50 | < 20 | 
N#Cc1ccn2c(-c3ccc(Nc4ccc(N5CCC(CN6CCN7c8cc(F)c(N9CCC(=O)NC9=O)cc8CC[C@H]7C6)CC5)cn4)c4c3CNC4=O)cnc2c1 [Trifluoroacetic acid salt of compound 39] | 6.58 | 4.21 | 7260 | 777 | 4.55 | >10 | >10 | 25600 | 2070 | 3.75 | < 50 | < 20 | 
O=C1CC[C@H](NC(=O)c2cc3c(cc2F)N2CCN(CC4CCN(c5ccc(Nc6ccc(-c7cnc8cc(F)ccn78)c7c6C(=O)NC7)nc5)CC4)C[C@@H]2CC3)C(=O)N1 [Trifluoroacetic acid salt of compound 7] |  |  |  |  |  | >10 | >10 |  |  |  |  | < 20 | IC50 (HPK1 kinase; ATP working concentration: 1 mM): < 50 nM
Cn1ccc2c(-c3ccc(Nc4ccc(N5CCC(CN6CCN7c8cc(F)c(N9CCC(=O)NC9=O)cc8CC[C@@H]7C6)CC5)cn4)c4c3CNC4=O)ccnc21 [Trifluoroacetic acid salt of compound 32] |  |  |  |  |  |  | >10 | 15800 | 1250 | 4.37 | < 50 | < 20 | 
O=C1CCN(c2cc3c(cc2F)N2CCN(C4CC5(CCN(c6ccc(Nc7ccc(-c8cnc9cc(F)ccn89)c8c7C(=O)NC8)nc6)CC5)C4)C[C@H]2CC3)C(=O)N1 [Trifluoroacetic acid salt of compound 19] | 11 | 7.66 | 5860 | 465 | 7.17 | >10 | >10 | 50500 | 3700 | 6.68 | < 50 | < 20 | 
